Laboratory results reported in PubChem BioAssay (NCI).
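Test compounds were applied to cells in 96-well plates for 48 hours at 5 doses. The concentration for 50% growth inhibition is given as GI50. TGI: concentration producing complete growth inhibition.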

Columns and labels:
Experiment in all cases: NCI anticancer screen, dose series, 48 h
786-0 renal = system: 786-0 renal
A498 renal = system: A498 renal
A549 NSCLC = system: A549 NSCLC
ACHN renal = system: ACHN renal
CAKI-1 renal = system: CAKI-1 renal
CCRF-CEM leukemia = system: CCRF-CEM leukemia
COLO 205 colon = system: COLO 205 colon
DLD-1 colon = system: DLD-1 colon
DMS 114 small cell lung = system: DMS 114 small cell lung
DMS 273 small cell lung = system: DMS 273 small cell lung
EKVX NSCLC = system: EKVX NSCLC
HCC-2998 colon = system: HCC-2998 colon
HCT-116 colon = system: HCT-116 colon
HCT-15 colon = system: HCT-15 colon
HL-60(TB) leukemia = system: HL-60(TB) leukemia
HOP-62 NSCLC = system: HOP-62 NSCLC
HT29 colon = system: HT29 colon
IGROV1 ovarian = system: IGROV1 ovarian
K-562 leukemia = system: K-562 leukemia
KM12 colon = system: KM12 colon
KM20L2 colon = system: KM20L2 colon
LOX IMVI melanoma = system: LOX IMVI melanoma
LXFL 529 NSCLC = system: LXFL 529 NSCLC
M14 melanoma = system: M14 melanoma
M19-MEL melanoma = system: M19-MEL melanoma
MALME-3M melanoma = system: MALME-3M melanoma
MOLT-4 leukemia = system: MOLT-4 leukemia
NCI-H23 lung = system: NCI-H23 lung
NCI-H460 lung = system: NCI-H460 lung
NCI-H522 lung = system: NCI-H522 lung
OVCAR-3 ovarian = system: OVCAR-3 ovarian
OVCAR-4 ovarian = system: OVCAR-4 ovarian
OVCAR-8 ovarian = system: OVCAR-8 ovarian
RPMI-8226 leukemia = system: RPMI-8226 leukemia
RXF 393 renal = system: RXF 393 renal
SF-268 CNS = system: SF-268 CNS
SF-295 CNS = system: SF-295 CNS
SK-MEL-2 melanoma = system: SK-MEL-2 melanoma
SK-MEL-28 melanoma = system: SK-MEL-28 melanoma
SK-MEL-5 melanoma = system: SK-MEL-5 melanoma
SK-OV-3 ovarian = system: SK-OV-3 ovarian
SN12C renal = system: SN12C renal
SNB-19 CNS = system: SNB-19 CNS
SR leukemia = system: SR leukemia
SW-620 colon = system: SW-620 colon
TK-10 renal = system: TK-10 renal
U251 CNS = system: U251 CNS
UACC-257 melanoma = system: UACC-257 melanoma
UACC-62 melanoma = system: UACC-62 melanoma
UO-31 renal = system: UO-31 renal
XF 498 CNS = system: XF 498 CNS

CC(C)=[CH][Sb]([Br])([CH]=C(C)C)([CH]=C(C)C)[c]1ccccc1
GI50 (786-0 renal): 43.7 µM | TGI (786-0 renal): > 100 µM | GI50 (A498 renal): 73 µM | TGI (A498 renal): > 100 µM | GI50 (A549 NSCLC): 16.6 µM | TGI (A549 NSCLC): > 100 µM | GI50 (ACHN renal): 36.9 µM | TGI (ACHN renal): > 100 µM | GI50 (CAKI-1 renal): > 100 µM | TGI (CAKI-1 renal): > 100 µM | GI50 (CCRF-CEM leukemia): 12.8 µM | TGI (CCRF-CEM leukemia): 46.6 µM | GI50 (COLO 205 colon): 4.52 µM | TGI (COLO 205 colon): 19.2 µM | GI50 (DLD-1 colon): 34 µM | TGI (DLD-1 colon): > 100 µM | GI50 (DMS 114 small cell lung): 13.1 µM | TGI (DMS 114 small cell lung): 46.3 µM | GI50 (DMS 273 small cell lung): 3.91 µM | TGI (DMS 273 small cell lung): 31 µM | GI50 (EKVX NSCLC): 3.95 µM | TGI (EKVX NSCLC): > 100 µM | GI50 (HCC-2998 colon): 27.2 µM | TGI (HCC-2998 colon): > 100 µM | GI50 (HCT-116 colon): 13 µM | TGI (HCT-116 colon): 47.2 µM | GI50 (HCT-15 colon): > 100 µM | TGI (HCT-15 colon): > 100 µM | GI50 (HL-60(TB) leukemia): 3.71 µM | TGI (HL-60(TB) leukemia): 15.6 µM | GI50 (HOP-62 NSCLC): 43.9 µM | TGI (HOP-62 NSCLC): > 100 µM | GI50 (HT29 colon): 20.6 µM | TGI (HT29 colon): > 100 µM | GI50 (IGROV1 ovarian): 16.9 µM | TGI (IGROV1 ovarian): > 100 µM | GI50 (K-562 leukemia): 11 µM | TGI (K-562 leukemia): 23 µM | GI50 (KM12 colon): 6.74 µM | TGI (KM12 colon): > 100 µM | GI50 (KM20L2 colon): 15.9 µM | TGI (KM20L2 colon): > 100 µM | GI50 (LOX IMVI melanoma): 35.4 µM | TGI (LOX IMVI melanoma): > 100 µM | GI50 (LXFL 529 NSCLC): 20.3 µM | TGI (LXFL 529 NSCLC): > 100 µM | GI50 (M14 melanoma): 20.6 µM | TGI (M14 melanoma): 82.4 µM | GI50 (M19-MEL melanoma): 6.14 µM | TGI (M19-MEL melanoma): > 100 µM | GI50 (MALME-3M melanoma): 6.07 µM | TGI (MALME-3M melanoma): > 100 µM | GI50 (MOLT-4 leukemia): 23.9 µM | TGI (MOLT-4 leukemia): > 100 µM | GI50 (NCI-H23 lung): 14.4 µM | TGI (NCI-H23 lung): 45.1 µM | GI50 (NCI-H460 lung): 21.6 µM | TGI (NCI-H460 lung): > 100 µM | GI50 (NCI-H522 lung): 3.32 µM | TGI (NCI-H522 lung): 13.9 µM | GI50 (OVCAR-3 ovarian): 4.32 µM | TGI (OVCAR-3 ovarian): 67.3 µM | GI50 (OVCAR-4 ovarian): 49.3 µM | TGI (OVCAR-4 ovarian): > 100 µM | GI50 (OVCAR-8 ovarian): 29.6 µM | TGI (OVCAR-8 ovarian): > 100 µM | GI50 (RPMI-8226 leukemia): 2.12 µM | TGI (RPMI-8226 leukemia): 15.7 µM | GI50 (RXF 393 renal): 11.4 µM | TGI (RXF 393 renal): 57.5 µM | GI50 (SF-268 CNS): 14.5 µM | TGI (SF-268 CNS): 58.2 µM | GI50 (SF-295 CNS): 20.2 µM | TGI (SF-295 CNS): 90.1 µM | GI50 (SK-MEL-2 melanoma): 26 µM | TGI (SK-MEL-2 melanoma): 86.7 µM | GI50 (SK-MEL-28 melanoma): 17.3 µM | TGI (SK-MEL-28 melanoma): > 100 µM | GI50 (SK-MEL-5 melanoma): 4.27 µM | TGI (SK-MEL-5 melanoma): 21.1 µM | GI50 (SK-OV-3 ovarian): 23 µM | TGI (SK-OV-3 ovarian): 74.6 µM | GI50 (SN12C renal): 25.4 µM | TGI (SN12C renal): > 100 µM | GI50 (SNB-19 CNS): 8.95 µM | TGI (SNB-19 CNS): 79 µM | GI50 (SR leukemia): 18.7 µM | TGI (SR leukemia): > 100 µM | GI50 (SW-620 colon): 32.6 µM | TGI (SW-620 colon): > 100 µM | GI50 (TK-10 renal): 34.9 µM | TGI (TK-10 renal): > 100 µM | GI50 (U251 CNS): 16.3 µM | TGI (U251 CNS): 74.2 µM | GI50 (UACC-257 melanoma): 6.35 µM | TGI (UACC-257 melanoma): > 100 µM | GI50 (UACC-62 melanoma): 16 µM | TGI (UACC-62 melanoma): 97.2 µM | GI50 (UO-31 renal): 23.2 µM | TGI (UO-31 renal): > 100 µM | GI50 (XF 498 CNS): 24.3 µM | TGI (XF 498 CNS): > 100 µM
